What was measured:
[1] = system: MCF-7 cells; test: Cell cycle profile analysis by flow cytometry; assay type: cell-based, human; conditions: Sal-B 50 μM and 100 μM, 24 hours
Method: (§1) Cell cycle profile analysis using flow cytometry and Western blot analysis. To understand the effects of Sal-B on the cell cycle of cancer cells, the cell cycle profile was analyzed using flow cytometry. The cells from both cell lines were treated with Sal-B (50 and 100 µM) or doxorubicin (0.1 and 1 μM) for 24 hours and then fixed in chilled 80% ethanol. The fixed cells were incubated in a solution containing 100 μg/mL RNase at 37° C. water bath for 45 minutes. Propidium iodide (final concentration of 50 μg/ml) was then added to the cells and incubated in a 37° C. water bath for another 15 minutes. The analysis was carried out with a FACStar flow cytometer (Becton Dickinson, San Jose, CA). Ten thousand cells per sample were analyzed, cach sample was done in triplicate and the experiment was repeated three times.

[2] = system: MDA-MB-231 cells; test: Cell cycle profile analysis by flow cytometry; assay type: cell-based, human; conditions: Sal-B 50 μM and 100 μM, 24 hours
Method: as §1

[3] = system: cyclin B1; test: Western blot of cyclin B1 expression in MDA and MCF-7 cells; assay type: cell-based, human; conditions: Sal-B 50 μM and 100 μM, 24 hours
Method: The expression of two cell cycle-related proteins—cyclin A and cyclin B1—was checked by Western blot. The expression of cyclin A and cyclin B1 was normalized by the expression of the internal control β-actin (lower panel). The cells were treated with 50 μM and 100 μM Sal-B, respectively, for 24 hours. Doxorubicin (0.1 μM and 1 μM) was used as a control. […] The results may be explained by that the cell cycle progression is controlled by a large set of molecules, although cyclin B1 is a key component in the control of cell cycle progression from G2 to M phase.
(§2) The immunohistochemical results were consistent with those from Western blotting (FIG. 7, panel A). Western blot analysis was used to determine the expression of apoptosis-related proteins Bcl-XL, survivin, caspase-3 and caspase-8 (FIG. 7, panel A). β-actin was used as an internal control for Western blotting. The MCD-7 and MDA cells were treated with Sal-B (50 μM and 100 μM) and doxorubicin (0.1 μM and 1 μM), respectively, for 24 hours. Proteins were extracted from the cells with RIPA lysis buffer (Santa Cruz Biotechnology, Santa Cruz, CA) and the protein concentrations were quantified with Bio-Rad protein quantification kit. Whole-cell proteins were separated on 8% SDS-polyacrylamide gel, transferred to the polyvinylidene difluoride membrane (Bio-Rad), and then probed with the indicated primary antibodies overnight at 4° C. Washed blots were then incubated with horseradish peroxidase-conjugated anti-rabbit, anti-mouse, or anti-goat antibody (Santa Cruz Biotechnology), respectively, for one hour at room temperature. Blots were developed and visualized with ECL detection system (Bio-Rad).

[4] = system: MDA tumor xenografts; test: TUNEL assay of apoptotic cells in MDA tumor xenografts; assay type: in vivo, athymic nude mice; conditions: Sal-B 80 mg/kg three times per week; untreated tumors 3.1±1.8; P<0.05
Method: Human tumor xenografts in athymic nude mice. […] The animal protocol was approved by the Howard University Animal Care and Use Committee. Four-week-old female athymic nude mice (Nu/Nu) were obtained from Harlan Sprague Dawley (Indianapolis, IN). All mice were provided the Harlan Teklad #2018 Global 18% protein rodent diet and water ad libitum. Mice were housed in temperature-controlled rooms (74±2° F.) with a 12-hour alternating light-dark cycle. MDA cells (3×10^6/50 μL/spot) were subcutaneously injected into the both sides of lower back of mice using a 27-gauge needle. […]
Apoptotic cells in MDA tumor xenografts were also analyzed by a terminal deoxynucleotidyl transferase-mediated dUTP nick end labeling (TUNEL) assay using the TdT-FragEL DNA Fragmentation Detection Kit (EMD Millipore, Burlington, MA) as previously described (Li H, et al., “Cellular uptake and anticancer activity of salvianolic acid B phospholipid complex loaded nanoparticles in head and neck cancer and precancer cells,” Colloids Surf B Biointerfaces. 2016; 147: 65-72). […]

[5] = system: survivin; test: Western blot of survivin expression in MDA and MCF-7 cells; assay type: cell-based, human; conditions: Sal-B 50 μM and 100 μM, 24 hours
Method: as §2

[6] = system: p-ERK; test: Western blot of p-ERK expression in MCF-7 and MDA cells; assay type: cell-based, human; conditions: different concentrations of Sal-B, 24 hours
Method: as §2
Because phospho-p44/42 extracellular signal-regulated kinases (p-ERK) is a key enzyme in the MAPK signal pathway, the expression of p-ERK was also investigated in MCF-7 and MDA cells following exposure to different concentrations of Sal-B for 24 hours.

O=C(/C=C/c1ccc(O)c2c1[C@H](C(=O)O[C@H](Cc1ccc(O)c(O)c1)C(=O)O)[C@@H](c1ccc(O)c(O)c1)O2)O[C@H](Cc1ccc(O)c(O)c1)C(=O)O [Sal-B, Salvianolic acid B]
changes in the cell cycle phases [1]: no significant changes
changes in the cell cycle phases [2]: no significant changes
cyclin B1 expression (normalized to β-actin) ([3]; MCF-7 cells): down-regulation
cyclin B1 expression (normalized to β-actin) ([3]; MDA cells): down-regulation
number of apoptotic cells (TUNEL) [4]: 12.2±3.2
survivin protein expression ([5]; MCF-7 cells): downregulated
survivin protein expression ([5]; MDA cells): downregulated
p-ERK expression (normalized to β-actin) ([6]; MCF-7 cells): down-regulated
p-ERK expression (normalized to β-actin) ([6]; MDA cells): down-regulated

Source: patent US12383527B2, “Methods for treating triple negative breast cancer using salvianolic acid B” (HOWARD UNIVERSITY, priority 2018, dated 2025)
